{"source": "ChEMBL document CHEMBL5696439", "about": "(Cancer Res, 2010)", "key": {"[1]": {"system": "LNCaP", "experiment": "Induction of apoptosis in human LNCaP cells assessed as increase in caspase-3/caspase-7 activity at 1 to 6 uM incubated for 24 to 48 hrs", "assay_type": "functional, cell-based", "details": "dose 1-6 µM, time 24-48 hrs"}, "[2]": {"system": "MDA-MB-361", "experiment": "Induction of apoptosis in human MDA-MB-361 cells assessed as little increase in G1 phase at 5 micromol/L incubated for 12 hrs by FACS analysis relative to control", "assay_type": "functional, cell-based", "details": "dose 5.0 µmol/L"}, "[3]": {"system": "MDA-MB-361", "experiment": "Induction of apoptosis in human MDA-MB-361 cells assessed as increase in G1 phase at 5 micromol/L incubated for 24 hrs by FACS analysis relative to control", "assay_type": "functional", "details": "dose 5 µmol/L, at 5 µM"}, "[4]": {"system": "MDA-MB-361", "experiment": "Induction of apoptosis in human MDA-MB-361 cells assessed as increase in caspase-3/caspase-7 activity at 1 to 6 uM incubated for 24 to 48 hrs", "assay_type": "functional, cell-based", "details": "dose 1-6 µM, time 24-48 hrs"}, "[5]": {"system": "A498", "experiment": "cells", "details": "Homo sapiens, A498, 24 h", "description": "Antiproliferative activity against human A498 cells assessed as cell growth inhibition incubated for 1 days by MTS assay"}, "[6]": {"system": "MDA-MB-361", "experiment": "Antiproliferative activity against human MDA-MB-361 cells assessed as cell growth inhibition incubated for 2 days by MTS assay", "assay_type": "functional, cell-based", "details": "MDA-MB-361, 48 h"}, "[7]": {"system": "MDA-MB-361", "experiment": "Antiproliferative activity against human MDA-MB-361 cells assessed as cell growth inhibition incubated for 1 days by MTS assay", "assay_type": "functional, cell-based", "details": "MDA-MB-361, 24 h"}, "[8]": {"system": "MDA-MB-361", "experiment": "Antiproliferative activity against human MDA-MB-361 cells assessed as cell growth inhibition incubated for 3 days by MTS assay", "assay_type": "functional, cell-based", "details": "MDA-MB-361, 72 h"}, "[9]": {"system": "A498", "experiment": "cells", "details": "Homo sapiens, A498, 48 h", "description": "Antiproliferative activity against human A498 cells assessed as cell growth inhibition incubated for 2 days by MTS assay"}, "[10]": {"system": "A498", "experiment": "cells", "details": "Homo sapiens, A498, 72 h", "description": "Antiproliferative activity against human A498 cells assessed as cell growth inhibition incubated for 3 days by MTS assay"}, "[11]": {"system": "LNCaP", "experiment": "Antiproliferative activity against human LNCaP cells assessed as suppression in cell growth at 10 micromol/L incubated for 3 days by MTS assay relative to control", "assay_type": "functional", "details": "dose 10 µmol/L; time 3 day; at 10 µM"}, "[12]": {"system": "MDA-MB-361", "experiment": "Induction of apoptosis in HER2 hyperactive human MDA-MB-361 cells assessed as cell death at 0.001 to 100 micromol/L incubated for 24 hrs by FACS analysis", "assay_type": "functional, cell-based", "details": "dose 0.001-100 µmol/L"}, "[13]": {"system": "MDA-MB-361", "experiment": "Antiproliferative activity against human MDA-MB-361 cells assessed as suppression in cell growth at 10 micromol/L incubated for 3 days by MTS assay relative to control", "assay_type": "functional", "details": "dose 10 µmol/L; time 3 day; at 10 µM"}, "[14]": {"target": "T1, Serine/threonine-protein kinase mTOR (Homo sapiens, UniProt P42345)", "experiment": "Inhibition of mTOR in human MDA-MB-361 cells assessed as 4EBP1 phosphorylation at T37/46 level at 1 micromol/L incubated 16 hrs by westernblot analysis", "assay_type": "cell-based", "details": "dose 1.0 µmol/L"}, "[15]": {"system": "U-87 MG", "experiment": "Antitumor activity against human U-87MG cells assessed as lactate production incubated for 24 hrs", "assay_type": "functional, cell-based", "details": "U-87MG ATCC, dose 0.01-10 µmol/L"}, "[16]": {"system": "U-87 MG", "experiment": "Antiproliferative activity against human U-87MG cells assessed as suppression in cell growth at 10 micromol/L incubated for 3 days by MTS assay relative to control", "assay_type": "functional, U-87MG ATCC", "details": "dose 10 µmol/L; time 3 day; at 10 µM"}, "[17]": {"system": "U-87 MG", "experiment": "Antitumor activity against human U-87MG cells assessed as reduction in lactate production at 1 micromol/L incubated for 24 hrs relative to control", "assay_type": "functional, U-87MG ATCC", "set-up": "scale not given: the % may be the effect or the level left", "details": "dose 1 µmol/L, at 1 µM"}, "[18]": {"target": "T1, Serine/threonine-protein kinase mTOR", "experiment": "Inhibition of mTOR in human MDA-MB-361 cells assessed as 4EBP1 phosphorylation at T70 level at 1 micromol/L incubated 16 hrs by westernblot analysis", "assay_type": "cell-based", "details": "dose 1.0 µmol/L"}, "[19]": {"system": "MDA-MB-361", "experiment": "Induction of apoptosis in PI3K/mTOR hyperactive human MDA-MB-361 cells assessed as massive cell death at 0.001 to 100 micromol/L incubated for 48 hrs by FACS analysis", "assay_type": "functional, cell-based", "details": "dose 0.001-100 µmol/L"}, "[20]": {"system": "A498", "experiment": "Antiproliferative activity against human A498 cells assessed as suppression in cell growth at 10 micromol/L incubated for 3 days by MTS assay relative to control", "assay_type": "functional", "details": "dose 10 µmol/L; time 3 day; at 10 µM"}, "[21]": {"system": "A549", "experiment": "Antiproliferative activity against human A549 cells assessed as suppression in cell growth at 10 micromol/L incubated for 3 days by MTS assay relative to control", "assay_type": "functional", "details": "dose 10 µmol/L; time 3 day; at 10 µM"}, "[22]": {"system": "A549", "experiment": "Antitumor activity against VHL null-human A549 cells xenografted in female nude mouse model assessed as inhibition in tumor growth at 25 mg/kg, iv administered 5 times a week", "assay_type": "functional, organism-based"}, "[23]": {"system": "HEK293", "experiment": "Antiproliferative activity against HEK293 cells assessed as reduction in polysomes at 0.5 micromol/L incubated for 16 hrs", "assay_type": "functional, Homo sapiens", "details": "dose 0.5 µmol/L"}, "[24]": {"system": "A549", "experiment": "Antitumor activity against human A549 cells xenografted in female nude mouse model assessed as substantial regression in large tumor growth at 200 mg/kg, iv administered once a week", "assay_type": "functional, organism-based"}, "[25]": {"target": "T1, Serine/threonine-protein kinase mTOR", "experiment": "Inhibition of mTOR in human MDA-MB-361 cells assessed as 4EBP1 phosphorylation at S65 level at 1 micromol/L incubated 16 hrs by westernblot analysis", "assay_type": "cell-based", "details": "dose 1.0 µmol/L"}, "[26]": {"system": "MDA-MB-361", "experiment": "Induction of apoptosis in PI3K/mTOR hyperactive human MDA-MB-361 cells assessed as cell death at 0.001 to 100 micromol/L incubated for 24 hrs by FACS analysis", "assay_type": "functional, cell-based", "details": "dose 0.001-100 µmol/L"}, "[27]": {"system": "MDA-MB-361", "experiment": "Inhibition of protein synthesis in human MDA-MB-361 cells at 3 micromol/L incubated for 3 hrs by [3H] methionine incorporation based scintillation counter analysis", "assay_type": "functional, cell-based", "details": "dose 3.0 µmol/L"}, "[28]": {"system": "MDA-MB-361", "experiment": "Induction of apoptosis in HER2 hyperactive human MDA-MB-361 cells assessed as massive cell death at 0.001 to 100 micromol/L incubated for 48 hrs by FACS analysis", "assay_type": "functional, cell-based", "details": "dose 0.001-100 µmol/L"}, "[29]": {"system": "A498", "experiment": "Antiproliferative activity against human A498 cells assessed as reduction in cell size at 1 micromol/L incubated for 48 hrs by Flow cytometry analysis relative to control", "assay_type": "functional", "set-up": "scale not given: the % may be the effect or the level left", "details": "dose 1 µmol/L, at 1 µM"}, "[30]": {"system": "MDA-MB-361", "experiment": "Antitumor activity against human MDA-MB-361 cells assessed as reduction in oxygen consumption rate at 1 micromol/L incubated for 1 hrs relative to control", "assay_type": "functional", "set-up": "scale not given: the % may be the effect or the level left", "details": "dose 1 µmol/L, at 1 µM"}, "[31]": {"system": "MDA-MB-361", "experiment": "Induction of apoptosis in human MDA-MB-361 cells assessed as PARP cleavage at 0.5 to 5 micromol/L incubated for 48 hrs by Western blot analysis", "assay_type": "functional, cell-based", "details": "dose 0.5-5 µmol/L"}}, "note": "Active and inactive are the calls of the source. No cut-off for these calls is given here.", "data": [{"smiles": "Oc1cccc(-c2nc(N3CCOCC3)c3oc4ncccc4c3n2)c1", "note": "[PI-103]", "values": [{"measurement": "Activity", "setting": "[1]", "result": "Active"}, {"measurement": "Activity", "setting": "[2]", "result": "Active"}, {"measurement": "Activity", "setting": "[3]", "result": 27, "unit": "%"}, {"measurement": "Activity", "setting": "[4]", "result": "Active"}]}, {"smiles": "CC(=O)O[C@H]1C(=O)[C@@]2(C)[C@H]([C@H](OC(=O)c3ccccc3)[C@]3(O)C[C@H](OC(=O)[C@H](O)[C@@H](NC(=O)c4ccccc4)c4ccccc4)C(C)=C1C3(C)C)[C@]1(OC(C)=O)CO[C@@H]1C[C@@H]2O", "note": "[PACLITAXEL]", "values": [{"measurement": "IC50", "setting": "[5]", "result": "> 0.15", "unit": "µg/mL"}, {"measurement": "IC50", "setting": "[6]", "result": "> 0.15", "unit": "µg/mL"}, {"measurement": "IC50", "setting": "[7]", "result": "> 0.15", "unit": "µg/mL"}, {"measurement": "IC50", "setting": "[8]", "result": 0.004, "unit": "µg/mL"}, {"measurement": "IC50", "setting": "[9]", "result": "> 0.15", "unit": "µg/mL"}, {"measurement": "IC50", "setting": "[10]", "result": 0.03, "unit": "µg/mL"}]}, {"smiles": "CO[C@H]1C[C@@H]2CC[C@@H](C)[C@@](O)(O2)C(=O)C(=O)N2CCCC[C@H]2C(=O)O[C@H]([C@H](C)C[C@@H]2CC[C@@H](OC(=O)C(C)(CO)CO)[C@H](OC)C2)CC(=O)[C@H](C)/C=C(\\C)[C@@H](O)[C@@H](OC)C(=O)[C@H](C)C[C@H](C)/C=C/C=C/C=C/1C", "note": "[TEMSIROLIMUS]", "values": [{"measurement": "Activity", "setting": "[11]", "result": "<=50%"}, {"measurement": "Activity", "setting": "[12]", "result": "inactive"}, {"measurement": "Activity", "setting": "[13]", "result": "<=50%"}, {"measurement": "inhibition", "setting": "[14]", "result": "inactive"}, {"measurement": "Activity", "setting": "[15]", "result": "Dose-Dependent Effect"}, {"measurement": "Activity", "setting": "[16]", "result": "<=50%"}, {"measurement": "Activity", "setting": "[17]", "result": 80, "unit": "%"}, {"measurement": "inhibition", "setting": "[18]", "result": "Active"}, {"measurement": "Activity", "setting": "[19]", "result": "inactive"}, {"measurement": "Activity", "setting": "[20]", "result": "<=50%"}, {"measurement": "Activity", "setting": "[21]", "result": "<=50%"}, {"measurement": "inhibition", "setting": "[22]", "result": "Active"}, {"measurement": "Activity", "setting": "[23]", "result": 1.02}, {"measurement": "Activity", "setting": "[24]", "result": "inactive"}, {"measurement": "inhibition", "setting": "[25]", "result": "Active"}, {"measurement": "Activity", "setting": "[26]", "result": "inactive"}, {"measurement": "inhibition", "setting": "[27]", "result": "inactive"}, {"measurement": "Activity", "setting": "[28]", "result": "inactive"}, {"measurement": "Activity", "setting": "[29]", "result": 97, "unit": "%"}, {"measurement": "Activity", "setting": "[30]", "result": 82, "unit": "%"}, {"measurement": "Activity", "setting": "[31]", "result": "inactive"}]}]}
